Source: patent publication US4857549A, “Antitumor compounds” (priority 1988, dated 1989)
Where “and” joins values, the source holds several entries; their conditions need not be identical. Identical values can stand only once. Like-named read-outs stand apart in the source and are kept apart here.

Experiments:
[1] = system: B16 melanoma cells (highly metastatic subline, F10); test: B16 melanoma in vitro cloning (colony forming) assay, 2 hour exposure; type: cell-based; conditions: read-out: IC50: concentration which inhibits cloning efficiency of B16 melanoma cells by 50%
Protocol: Initially, the cytotoxic activity of the Formula (I) and Formula (IA) compounds used in the pharmaceutical compositions and methods of treatment of the instant invention was evaluated in vitro using B16 melanoma cells according to the following assay:
B16 melanoma (highly metastatic subline, F10) are used and maintained as monolayer cultures in Minimal Essential Media (Grand Island Biological Co., Grand Island, N.Y. ) supplemented with 10% calf serum, 1% antibiotics in a 5% CO2 humidified incubator at 37° C. Asynchronous populations of cells are harvested and replated to 5000 cells/plate in sterile 60 mm×15 mm petri plates. Plates are incubated overnight to allow attachment of the cells to the plate. Cells are treated with a Formula (I) or Formula (IA) compound or cisplatin under sterile conditions, allowed to react for 2 hours followed by aspiration of medium. Plates are washed one time with 5 ml of phosphate buffered saline (PBS), followed by the addition of 5 ml of fresh media. Plates are incubated for 5 days at 37° in a CO2 incubator. Viability is measured by the ability of a cell to form a colony of greater than 50 cells. Colonies are fixed with 0.5% crystal violet in 95% ethanol. Plates are dried and counted with a Biotran III Automatic Count Totalizer (New Brunswick Scientific Co., Edison, N.J.). Mean and standard deviation of triplicate samples are determined for each drug concentration. The data are analyzed by plotting the log of the survival fraction (number of colonies in drug treated plates/number of colonies in controls) versus the drug concentration.
^(a) concentration which inhibits cloning efficiency of B16 melanoma
cells by 50% on a 2hour exposure.

[2] = system: P388 leukemia
[3] = system: M5076 reticulum cell sarcoma; test: ip M5076 reticulum cell sarcoma assay in mice; conditions: for MTD (maximally tolerated dose): B6D2F1 female mice; for MTD (maximally tolerated dose) / ILS max (maximum increase in lifespan): ip qD × 10; for ILS max (maximum increase in lifespan): ip M5076 sarcoma mice, slash = separate experiments; for activity in the ip M5076 reticulum cell sarcoma assay: in words, based on Tables C and D
Protocol: (§1) Another chemosensitive tumor model is intraperitoneally (ip) implanted M5076 reticulum cell sarcoma in mice. In this system B6D2F1 female mice are inoculated with 0.5 ml of a 10 percent weight:volume (w:v) brei of M5076 prepared from pooled subcutaneous (sc) tumors excised at about 21 days from c57B1/6 donor mice. Drugs are administered ip. Daily treatment is begun 24 hours after implantation and is continued for ten days. The treatment regimen for M5076 is more prolonged than for P388 because of the slower growth rate and longer control survival time of the M5076 tumor.

[4] = system: mammary adenocarcinoma 16/c; test: sc mammary adenocarcinoma 16/c assay
Protocol: The mammary adenocarcinoma 16/c tumor is implanted sc in C3H mice, and the Formula (I) compound is administered ip on days 1, 5, 9, 13 and 17. Tumors are measured 3 weeks after implantation, and activity is assessed by degree of tumor growth inhibition.

[5] = system: B16 melanoma; test: in vivo ip B16 melanoma assay; conditions: Table E, ip qD × 10
Protocol: The cytotoxic activity of several compounds of Formula (I) was evaluated in vivo using B16 melanoma cells according to the following assay:
In this system, groups of eight B6D2F1 mice are inoculated ip with 0.5 ml of a 10% (w:v) brei of B16 melanoma prepared from pooled sc tumors excised at 14.noteq.21 days from C67B1 /6 donor mice. Daily treatment is begun 24 hours after tumor implantation and is continued daily for 10 days. The route of drug administration is ip. The mice are monitored daily for survival for 60 days. Antitumor activity is assessed by prolongation of median survival time.

[6] = ip M5076 reticulum cell sarcoma assay in mice; conditions: mouse, in vivo, ip
Protocol: as §1

[7] = in vivo; conditions: mouse, ip
[8] = system: ADJ-PC6 Plasmacytoma; test: ADJ-PC6 plasmacytoma assay; conditions: in words
Protocol: Tumor cells are carried by serial sc passage in BALB/c female mice and then collected aseptically on ca. Day 21 and minced in Hank's balanced salt solution. The cells are then dispersed by homogenization in a loose-fitting teflon glass homogenizer, and cell concentration is adjusted to 4×10^6 viable ([…]) cells per ml by hemocytometer counts. A total of 0.5 ml (2×10^6 cells) is implanted sc on the right flank of BALB/c female mice in groups of 8. Treatment is given ip on Days 1-10, and tumors are measured in perpendicular diameters with a vernier caliper on Day 18.
^(b) maximally tolerated dose for BALB/c female mice on an ip qD

[9] = Table B, B6D2F1 female mice, ip qD × 5
[10] = Table B, ip P388 leukemia mice, ip days 1-5, slash-separated figures are separate experiments, compound 2: 35 experiments
[11] = Table C, compound 2: seven experiments
[12] = Mus musculus, B16, Table AI, Formula (IA)

| SMILES | IC50 ([1]; Table A, Formula (I)) [µM] | MTD (maximally tolerated dose) [2, 9] [mg/kg] | ILS (maximum increase in lifespan) [2, 10] | ILS max (maximum increase in lifespan) [3, 11] [%] | IC50 [1, 12] [µM] | MTD [7] [mg/kg] | further results |
| --- | --- | --- | --- | --- | --- | --- | --- |
| [Cl][Au][PH](C[PH]([Au][Cl])(c1ccccc1)c1ccccc1)(c1ccccc1)c1ccccc1 [Compound 1, μ-[1,3-Bis(Diphenylphosphino)Methane]Bis[Chlorogold(I)]] | 6 | 50 | 62% and 50% |  |  |  |  |
| [Cl][Au][PH](CCC[PH]([Au][Cl])(c1ccccc1)c1ccccc1)(c1ccccc1)c1ccccc1 [Compound 3, μ-[1,3-Bis(Diphenylphosphino)Propane]Bis[Chlorogold(I)]] | 2 | 8 |  | 69 |  |  | MTD (maximally tolerated dose) ([3]; Table C): 5 mg/kg; activity in the ip M5076 reticulum cell sarcoma assay [3]: good activity |
| [Cl][Au][PH](CCCC[PH]([Au][Cl])(c1ccccc1)c1ccccc1)(c1ccccc1)c1ccccc1 [Compound 4, μ-[1,4-Bis(Diphenylphosphino)Butane]Bis[Chlorogold(I)]] | 3 |  | 45% and 40% |  |  |  | MTD (maximally tolerated dose) ([2]; mouse, in vivo, ip): 6 mg/kg |
| [Cl][Au-][P+](CCCCC[P+]([Au-][Cl])(c1ccccc1)c1ccccc1)(c1ccccc1)c1ccccc1 [Compound 5, μ-[1,5-Bis(Diphenylphospinio)Pentane]Bis[Chlorogold(I)]] | 2 | 4 | 55% |  |  |  |  |
| [Cl][Au-][P+](CCCCCC[P+]([Au-][Cl])(c1ccccc1)c1ccccc1)(c1ccccc1)c1ccccc1 [Compound 6, μ-[1,6-Bis(Diphenylphosphino)Hexane]Bis[Chlorogold(I)]] | 2 |  |  |  |  |  | ILS (maximum increase in lifespan) ([2]; mouse, in vivo, ip): 40% and 35%; MTD (maximally tolerated dose) ([2]; mouse, in vivo, ip): 4 mg/kg |
| [Cl][Au][PH](C=C[PH]([Au][Cl])(c1ccccc1)c1ccccc1)(c1ccccc1)c1ccccc1 [Compound 7, μ-[Cis-1,2-Bis(Diphenylphosphino)Ethylene]Bis[Chlorogold(I)]] | 7 | 4 | 105% and 77% | 90 |  |  | MTD (maximally tolerated dose) ([3]; Table C): 3 mg/kg; activity in the ip M5076 reticulum cell sarcoma assay [3]: good activity |
| [Cl][Au]([Cl])([Cl])[PH](CC[PH](c1ccccc1)(c1ccccc1)[Au]([Cl])([Cl])[Cl])(c1ccccc1)c1ccccc1 [Compound 12, μ-[1,2-Bis(Diphenylphosphino)Ethane]Bis[Trichlorogold(III)]] | 4 | 16 | 95% and 62% | 74 |  |  | MTD (maximally tolerated dose) ([3]; Table C): 8 mg/kg |
| [Br][Au][PH](CC[PH]([Au][Br])(c1ccccc1)c1ccccc1)(c1ccccc1)c1ccccc1 [Compound 15] |  |  | 116% and 80% | 69 |  |  | MTD (maximally tolerated dose) ([4]; Table F, C3H mice, intermittent ip regimen): 26 um/kg; Inhibition (tumor growth inhibition) ([4]; Table F, sc tumor, ip days 1, 5, 9, 13, 17, slash = separate experiments): 79%; MTD (maximally tolerated dose) ([5]; B6D2F1 mice): 13 um/kg; ILS (maximum increase in lifespan) ([5]; ip B16 melanoma mice, slash = separate experiments): 49% and 41% |
| [Cl][Au][PH](CC[PH]([Au][Cl])(C1CCCCC1)C1CCCCC1)(C1CCCCC1)C1CCCCC1 [Compound 22, μ-[1,2-Bis(Dicyclohexylphosphino)Ethane]Bis[Chlorogold(I)]] | 14 | 16 |  | 27 |  |  | MTD (maximally tolerated dose) ([3]; Table C): 8 mg/kg |
| C(=C/P(c1ccccc1)c1ccccc1)/P(c1ccccc1)c1ccccc1 [Compound 34, cis-bis(1,2-diphenylphosphino)ethylene] |  |  |  |  | 25 | 24 | MTD [6]: 5 mg/kg; ILS max (maximum increase in lifespan) ([3]; Table D): 57%; activity in the ip M5076 reticulum cell sarcoma assay [3]: good activity |
| CC(CP(c1ccccc1)c1ccccc1)P(c1ccccc1)c1ccccc1 (stereo not shown) [Compound 35, Bis(1,2-diphenylphosphino)propane] |  |  |  |  | 50 | 32 | MTD (maximally tolerated dose) ([3]; Table D): 24 mg/kg; ILS max (maximum increase in lifespan) ([3]; Table D): 62% |
| C[C@H](CP(c1ccccc1)c1ccccc1)P(c1ccccc1)c1ccccc1 [Compound 36, R-(+)-bis(1,2-diphenylphosphino)propane] |  |  |  |  | 50 | 32 |  |
| c1ccc(P(CCCP(c2ccccc2)c2ccccc2)c2ccccc2)cc1 [Compound 37, bis(1,3-diphenylphosphino)propane] |  |  |  |  | 72 | 32 |  |
| c1ccc(P(c2ccccc2)c2ccccc2P(c2ccccc2)c2ccccc2)cc1 [Compound 40, Bis(1,2-Diphenylphosphino)Benzene] |  |  |  |  | 28 | 32 |  |
| [2H]c1c([2H])c([2H])c(P(CCP(c2c([2H])c([2H])c([2H])c([2H])c2[2H])c2c([2H])c([2H])c([2H])c([2H])c2[2H])c2c([2H])c([2H])c([2H])c([2H])c2[2H])c([2H])c1[2H] [Compound 43, 1,2-Ethanediyl-bis[di(phenyl-d5)phosphine]] |  |  |  |  | 50 | 24 |  |
| N.N.[Cl][Pt][Cl] [cisplatin, reference compound] |  |  |  |  |  |  | tumor growth inhibition by positive control [8]: complete tumor growth inhibition; activity of positive control in ip M5076 ([3]; all experiments, active = average ≥25 percent ILS): active in all experiments; inhibition of growth of mammary adenocarcinoma 16/c by positive control ([4]; in words, generally produced): complete inhibition |
